These are literature values, as cited in paper PMC8172013, “Carboxylesterase Notum Is a Druggable Target to Modulate Wnt Signaling” (Journal of Medicinal Chemistry, 2021).

SMILES strings stand for the structures. Like-named read-outs stand apart in the source and are kept apart here. A value given as a limit tells only on which side of the number the result lay.

The target of series [1] is T1, Notum (Homo sapiens, UniProt Q6P988).
T1 sequence (Q6P988 20-496): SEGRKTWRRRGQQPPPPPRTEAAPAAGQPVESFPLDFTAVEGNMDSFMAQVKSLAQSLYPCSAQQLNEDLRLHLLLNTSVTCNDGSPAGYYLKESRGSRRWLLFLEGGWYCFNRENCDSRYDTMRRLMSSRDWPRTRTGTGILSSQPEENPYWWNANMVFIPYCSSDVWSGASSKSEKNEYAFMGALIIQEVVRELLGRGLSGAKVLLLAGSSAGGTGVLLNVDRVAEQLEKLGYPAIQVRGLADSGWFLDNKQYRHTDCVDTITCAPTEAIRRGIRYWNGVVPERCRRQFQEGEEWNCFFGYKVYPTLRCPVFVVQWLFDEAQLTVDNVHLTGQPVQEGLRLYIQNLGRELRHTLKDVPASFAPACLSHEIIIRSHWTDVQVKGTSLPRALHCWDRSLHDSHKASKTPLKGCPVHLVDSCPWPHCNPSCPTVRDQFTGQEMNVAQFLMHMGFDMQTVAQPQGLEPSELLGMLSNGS

Series [2] deals with T1, Notum. The settings on record: TCF/LEF assay.
Series [3] has as its system midshaft femur cortical thickness. The following applies: mice, 3, 10, 30 mg/kg po daily, 25 days.
Series [4] deals with T1, Notum. The settings on record: OPTS assay.
For series [5] the following is noted: mouse, 10 mg/kg po.
For another series, the system named is bone formation. More on the design: method as in PMID 19072540, PMID 19932972. The settings on record: ex vivo model of bone formation.

Consider `C#CCN1CCN(C(=O)ON2C(=O)C3CN(Cc4ccc(Cl)cc4)CCN3C2=O)c2ccccc21` (centres unmarked) [ABC99yne], for which the IC50 (commonly the concentration that gives 50% inhibition) on Notum [1] (stated in words) was “sub-micromolar”.

Regarding `O=C(c1ccc(Cl)cc1)N1CCN2C(=O)N(OC(=O)N3CCOc4ccccc43)C(=O)C2C1` (centres unmarked) [ABC101], the EC50 (commonly the concentration that produces a half-maximal response) on Notum [2] was more than 5 µM. The IC50 at Notum [1] (competitive gel-based ABPP, read-out: Notum IC50) is more than 10 µM.

In the case of `O=C(O)CSc1ncnc2c(C3CC3)c(Cl)sc12` [Compound 26], the “midshaft femur cortical thickness” value in series [3] is listed as “increases in midshaft femur cortical thickness at all doses tested”.

As for `Cc1csc2c(SCC(=O)O)ncnc12` [Compound 36], on Notum [4], the IC50 was 0.19 µM.

In the case of `Cc1sc2ncnc(SCC(=O)O)c2c1Cl` [Compound 37], the EC50 on Notum [2] was approximately 0.1 µM.

For the compound `CCCc1sc2ncnc(SCC(=O)O)c2c1Cl` [Compound 38], on Notum [2], the EC50 was approximately 0.1 µM.

With `Cc1c(Cl)sc2ncnc(SCC(=O)N3CC(=O)N(C)C3)c12` [Compound 40], the IC50 at Notum [4] was 0.0024 µM. Also, in series [5], the plasma exposure entry was “low plasma exposure”.

Consider `Cc1cc(C(=O)O)c(C)n1C1CC1` [Compound 58], for which the half-maximal inhibitory concentration (IC50) at Notum [4] was 6.3 µM.

In the case of `Cc1cc(C(=O)O)c(C)n1-c1cccc(C(C)C)c1F` [Compound 60], the IC50 at Notum [4] was 0.15 µM.

`O=C(C1CCN(c2ccc(Cl)c(C(F)(F)F)c2)C1)N1CC(F)(F)C1` (centres unmarked) [Compound 62]: the IC50 at Notum [4] is 0.26 µM.

As to `O=c1[nH]nc(C2CCN(c3ccc(Cl)c(C(F)(F)F)c3)C2)o1` (centres unmarked) [Compound 63], the IC50 on Notum [4] is 4.2 µM.

In the case of `CC(C)(C)NC(=O)N1CCC[C@H]1C(=O)N1CCC(NS(=O)(=O)c2ccc(S(=O)(=O)c3ccccc3)cc2C(F)(F)F)CC1` [WAY-362692], the “increase in total bone area” value with bone formation is listed as 75%.
